Publication PMC9864219, “Chemodiversity and Anti-Leukemia Effect of Metabolites from Penicillium setosum CMLD 18” (Metabolites, 2022)
Blank lines part the entries; values can stand above or below the molecule they belong to.

Assays:
Kasumi-1 [1] = experiment: Resazurin cell viability assay, Kasumi-1; format: cell-based, human; details: for cell viability: Kasumi-1, 100 μM, 48 h, resazurin (Figure 5A)
From the text: (§1) Human leukemic cell lines (Kasumi-1, KG-1, MOLT-4, and Jurkat) were obtained from the American Type Culture Collection (ATCC). KG-1 cells were maintained in Iscove’s modified Dulbecco’s medium (IMDM) supplemented with 20% fetal bovine serum (FBS) (Cultilab, Campinas, Brazil), according to criteria adopted by the cell bank (https://www.atcc.org/products/ccl-246#detailed-product-information) accessed on 10 November 2021, whereas the other lineages were maintained in Roswell Park Memorial Institute medium (RPMI 1640) (Sigma Aldrich, St. Louis, MI, USA) supplemented with 10% FBS. All cells were cultured in a medium containing 100 U/mL penicillin (Sigma Aldrich, St. Louis, MI, USA) and 100 μg/mL streptomycin (Sigma Aldrich, St. Louis, MI, USA) and in a humidified incubator containing 5% CO2 at 37 °C. Passage numbers for all leukemic cell lines were between 3 and 6.
(§2) A resazurin assay (Sigma Aldrich, St. Louis, MI, USA) was used to screen and assess the activity of extracts, fractions, and isolated compounds against leukemic cell lines. Briefly, 10^5 cells/mL were seeded in 96-well plates containing supplemented medium. Cells were treated in the presence or absence of compounds for 48 h using a high concentration (100 µg/mL or 100 µM to isolated compounds) or a concentration–response curve (100, 50, 25, 12.5, 6.25, 3.12, 1.56, and 0.78 µM) after 24 h of treatment with isolated compounds was constructed. After treatment, the cell culture medium was removed, and 100 µL of medium with 10% Resazurin solution was added; after 4 h of incubation, the fluorescence was measured (excitation 530 nm, emission 590 nm) in a FlexStation 3 microplate reader (Molecular Devices, San Jose, CA, USA). Each experiment was performed in triplicate.

Jurkat [2] = experiment: Resazurin cell viability assay, Jurkat; format: cell-based, human; details: for cell viability: 100 μM, 48 h, resazurin (Figure 5B)
From the text: as §1, §2

Jurkat [3] = tested on: Jurkat; design: method as in PMID 28509552; details: Alamar Blue, 72 hrs; cited from earlier work
K-562 = tested on: K-562; design: method as in PMID 28509552; details: Alamar Blue, 72 hrs; cited from earlier work
Hela = tested on: Hela; design: method as in PMID 28509552; details: Alamar Blue, 72 hrs; cited from earlier work
[4] = target: ACL, an ATP citrate lyase; design: method as in PMID 27997879; details: read-out: IC50 inhibitory activity against ACL; cited from earlier work
L1210 cells = tested on: L1210 cells; design: method as in PMID 6320499; details: read-out: IC50 inhibiting L1210 cells; cited from earlier work
normal PBMC cells = experiment: Resazurin cell viability assay, normal PBMC; format: cell-based, human; details: concentration-response curve, 24 h
Protocol: Peripheral blood mononuclear cells (PBMCs) were obtained from three healthy donors. Human monocytes were collected from healthy donors after informed patient consent was obtained. Separation of mononuclear cells was performed by gradient centrifugation methods using Ficoll Histopaque-1077 (1.077 g/cm^3) (Sigma Aldrich, St. Louis, MI, USA) following the manufacturer’s instructions. The use of human samples was approved by the local Ethical Committee of the Universidade Federal de Mato Grosso do Sul (CAAE35853720.2.0000.0021). Cells were maintained in IMDM supplemented with 20% FBS, 100 U/mL penicillin, and 100 μg/mL streptomycin in a humidified atmosphere at 37 °C in 5% CO2.
A resazurin assay (Sigma Aldrich, St. Louis, MI, USA) was used to screen and assess the activity of extracts, fractions, and isolated compounds against leukemic cell lines. Briefly, 10^5 cells/mL were seeded in 96-well plates containing supplemented medium. […] After treatment, the cell culture medium was removed, and 100 µL of medium with 10% Resazurin solution was added; after 4 h of incubation, the fluorescence was measured (excitation 530 nm, emission 590 nm) in a FlexStation 3 microplate reader (Molecular Devices, San Jose, CA, USA). […]

Kasumi-1 [5] = experiment: Annexin V-FITC/7-AAD flow cytometry assay, Kasumi-1; format: cell-based, human; details: Kasumi-1, 50 μM, 24 h
Protocol: (§3) An Annexin V-FITC/7-AAD double staining assay was performed to evaluate the proapoptotic effect of 10. Kasumi-1 and Jurkat cells (10^5/mL) were treated for 24 h with EC50, 50, or 50 µM 10, respectively, or Staurosporine (1 µM) (Sigma Aldrich, St. Louis, MI, USA). Then, the cells were resuspended in annexin binding buffer (0.14 M NaCl, 2.5 mM CaCl2, 0.01 M HEPES, pH 7.4) and incubated at room temperature with 1 μL and 2 μL of annexin V-FITC and 7-AAD (Becton Dickinson, Covington, GA, USA), respectively, for 30 min. Data were analyzed using FlowJo V10 (Becton Dickinson—BD, USA) software; 20,000 events were collected per sample.

Jurkat [6] = experiment: Annexin V-FITC/7-AAD flow cytometry assay, Jurkat; format: cell-based, human; details: 50 μM, 24 h
Protocol: as §3

[7] = tested on: cleaved caspase-3 in Kasumi-1; experiment: Intracellular labeling of cleaved caspase-3 by flow cytometry, Kasumi-1; format: cell-based, human; details: Kasumi-1, 50 μM, 24 h
Protocol: (§4) Kasumi-1 and Jurkat cells (10^5/mL) were treated for 24 h with EC50, 50, or 50 µM 10, respectively. Then, cells were fixed with BD Cytofix (BD Biosciences, Mississauga, ON, Canadá) for 15 min, washed with BD Perm/Wash buffer, and permeabilized with Perm Buffer III (BD, USA) for 30 min at room temperature. In order to label cleaved caspase-3 protein (Cell Signaling, Danvers, MA, USA), cells were incubated for 1 h with primary antibody (1:800). Anti-rabbit IgG secondary antibodies conjugated with Alexa Fluor 488 (Thermo Fisher Scientific, Waltham, MA, USA) (1:1000) were incubated for at least 40 min, and the fluorescence was measured using an Accuri C6 flow cytometer and FlowJo software to analyze the results; 20,000 events were collected per sample. Protein analyses were performed using GM fluorescence intensity.

[8] = tested on: cleaved caspase-3 in Jurkat; experiment: Intracellular labeling of cleaved caspase-3 by flow cytometry, Jurkat; format: cell-based, human; details: 50 μM, 24 h
Protocol: as §4

Kasumi-1 [9] = experiment: Cell cycle analysis (PI) and cell count, Kasumi-1; format: cell-based, human; details: Kasumi-1, 10 μM, 72 h
Protocol: (§5) The distribution of cell cycle phases was determined by propidium iodide (PI) staining and flow cytometry analysis. Kasumi-1 and Jurkat cells (10^5/mL) were treated with 10 (10 μM or 1 μM, respectively) for 72 h. Then, the cells were fixed and permeabilized as previously described and treated with 4 μg/mL RNase (Sigma Aldrich, St. Louis, MI, USA) for 45 min at 37 °C. For DNA labeling, cells were incubated with 5 μg/mL of PI (Sigma Aldrich, St. Louis, MI, USA). Percentages of cells within cell cycle compartments (G1/G0, S, and G2/M) were performed using an Accuri C6 flow cytometer (BD Biosciences, Mississauga, Canadá). A total of 40,000 events were acquired.

Jurkat [10] = experiment: Cell cycle analysis (PI) and cell count, Jurkat; format: cell-based, human; details: 10 μM, 72 h
Protocol: as §5, with “Kasumi-1 and Jurkat cells (10^5/mL) were treated with 10 (10 μM or 1 μM, respectively) for 72 h.” left out

[11] = tested on: CD11b expression in Kasumi-1 cells; experiment: Cell differentiation by immunophenotyping (CD11b); format: cell-based, human; details: Kasumi-1, 10 μM, 72 h
Protocol: Cells (10^5/mL) were treated with 10 μM Compound 10 for 72 h. Then, the cells were collected and stained with CD11b-Cy7/PE (2 μL) (BD, USA). The measurements of fluorescence intensity were performed using an Accuri C6 flow cytometer (BD Biosciences, Mississauga, Canadá); 40,000 events were collected per sample. Results were expressed as GM fluorescence intensity.

HL-60 = tested on: HL-60; design: method as in doi:10.1016/j.cclet.2017.09.006; details: acute myeloid leukemia cell line; read-out: IC50 against the HL-60 lineage; cited from earlier work

SMILES: CSC12CC3=COC=CC(OC(C)=O)C3N1C(=O)C1(SC)CC3=COC=CC(OC(C)=O)C3N1C2=O (stereo not shown) [Compound 9, bisdethiobis(methylthio)acetylaranotine]
cell viability (Kasumi-1 [1]): reduction in cell viability
cell viability (Jurkat [2]): reduction in cell viability

SMILES: O=C1c2cc(CO)cc(O)c2C(=O)c2c1cc(O)c(Cl)c2O [Compound 7, 2-chloro-1,3,8-trihydroxy-6-(hydroxymethyl)anthracene-9,10-dione]
cell viability (Kasumi-1 [1]): reduction in cell viability
cell viability (Jurkat [2]): reduction in cell viability
activity against Jurkat (Jurkat [3]): inactive
activity against K-562 (K-562): inactive
activity against Hela (Hela): inactive

SMILES: Cc1cc(O)c2c(c1)C(=O)c1cc(O)c(Cl)c(O)c1C2=O [Compound 8, 7-chloroemodin]
cell viability (Kasumi-1 [1]): reduction in cell viability
cell viability (Jurkat [2]): reduction in cell viability
IC50 [4]: 12.6 µM

SMILES: Cc1cc(O)c2c(c1)C(=O)c1cc(O)cc(O)c1C2=O [Compound 3, emodin]
IC50 (L1210 cells): 35 µM

EC50 (Jurkat [2]; Homo sapiens, concentration-response curve, 24 h, resazurin): 50 µM
cleaved-caspase-3 [7]: increased cleaved-caspase-3
cleaved-caspase-3 [8]: increased cleaved-caspase-3
SMILES: C=CC(C)(C)c1[nH]c2ccccc2c1CC1NC(=O)C(Cc2c(C(C)(C)C=C)[nH]c3ccccc23)NC1=O (stereo not shown) [Compound 10, fellutanine C]
EC50 (Kasumi-1 [1]; Homo sapiens, Kasumi-1, concentration-response curve, 24 h, resazurin): 50 µM
cell viability (Kasumi-1 [1]): reduction in cell viability
cell viability (Jurkat [2]): reduction in cell viability
cytotoxicity effect on normal PBMC cells (normal PBMC cells): did not show a cytotoxicity effect
cell death mode (Annexin V-FITC and 7-AAD staining) (Kasumi-1 [5]): predominant apoptosis staining (Anx-FITC+/7 AAD-)
cell death mode (Annexin V-FITC and 7-AAD staining) (Jurkat [6]): predominant double staining (late apoptosis and necrosis-like)
cell proliferation (cell count) (Kasumi-1 [9]): reduction in cell proliferation
cell viability at the cell cycle concentration (Kasumi-1 [9]): did not observe a reduction in cell viability
cell cycle distribution (Kasumi-1 [9]; PI staining): cell cycle arrest in G0/G1
cell proliferation (cell count) (Jurkat [10]): reduction in cell proliferation
cell viability at the cell cycle concentration (Jurkat [10]): did not observe a reduction in cell viability
cell cycle distribution (Jurkat [10]; PI staining): cell cycle arrest in G0/G1
expression of mature myeloid marker CD11b [11]: did not produce an increase in the expression of CD11b
IC50 (HL-60): 9.34 µM
